Our source for the IC50 values is ChEMBL document CHEMBL4354875, “Structural Basis for EGFR Mutant Inhibition by Trisubstituted Imidazole Inhibitors” (J Med Chem, 2020).

Each structure is given as a SMILES string.

Assay [1] concerns the target Epidermal growth factor receptor (Homo sapiens, UniProt P00533, L858R/T790M). Briefly: Inhibition of human EGFR L858R/T790M mutant using poly[Glu:Tyr] (4:1) as substrate measured in presence of [gamma-33P]ATP by radiometric assay.
In assay [2] the target is Epidermal growth factor receptor (Homo sapiens, UniProt P00533, C797S/L858R/T790M). The assay can be described thus: Inhibition of human EGFR L858R/T790M/C797S mutant using poly[Glu:Tyr] (4:1) as substrate measured in presence of [gamma-33P]ATP by radiometric assay.
Chain of Epidermal growth factor receptor (Homo sapiens, UniProt P00533, C797S/L858R/T790M) (P00533 25-1210 T790M/C797S/L858R limits assumed): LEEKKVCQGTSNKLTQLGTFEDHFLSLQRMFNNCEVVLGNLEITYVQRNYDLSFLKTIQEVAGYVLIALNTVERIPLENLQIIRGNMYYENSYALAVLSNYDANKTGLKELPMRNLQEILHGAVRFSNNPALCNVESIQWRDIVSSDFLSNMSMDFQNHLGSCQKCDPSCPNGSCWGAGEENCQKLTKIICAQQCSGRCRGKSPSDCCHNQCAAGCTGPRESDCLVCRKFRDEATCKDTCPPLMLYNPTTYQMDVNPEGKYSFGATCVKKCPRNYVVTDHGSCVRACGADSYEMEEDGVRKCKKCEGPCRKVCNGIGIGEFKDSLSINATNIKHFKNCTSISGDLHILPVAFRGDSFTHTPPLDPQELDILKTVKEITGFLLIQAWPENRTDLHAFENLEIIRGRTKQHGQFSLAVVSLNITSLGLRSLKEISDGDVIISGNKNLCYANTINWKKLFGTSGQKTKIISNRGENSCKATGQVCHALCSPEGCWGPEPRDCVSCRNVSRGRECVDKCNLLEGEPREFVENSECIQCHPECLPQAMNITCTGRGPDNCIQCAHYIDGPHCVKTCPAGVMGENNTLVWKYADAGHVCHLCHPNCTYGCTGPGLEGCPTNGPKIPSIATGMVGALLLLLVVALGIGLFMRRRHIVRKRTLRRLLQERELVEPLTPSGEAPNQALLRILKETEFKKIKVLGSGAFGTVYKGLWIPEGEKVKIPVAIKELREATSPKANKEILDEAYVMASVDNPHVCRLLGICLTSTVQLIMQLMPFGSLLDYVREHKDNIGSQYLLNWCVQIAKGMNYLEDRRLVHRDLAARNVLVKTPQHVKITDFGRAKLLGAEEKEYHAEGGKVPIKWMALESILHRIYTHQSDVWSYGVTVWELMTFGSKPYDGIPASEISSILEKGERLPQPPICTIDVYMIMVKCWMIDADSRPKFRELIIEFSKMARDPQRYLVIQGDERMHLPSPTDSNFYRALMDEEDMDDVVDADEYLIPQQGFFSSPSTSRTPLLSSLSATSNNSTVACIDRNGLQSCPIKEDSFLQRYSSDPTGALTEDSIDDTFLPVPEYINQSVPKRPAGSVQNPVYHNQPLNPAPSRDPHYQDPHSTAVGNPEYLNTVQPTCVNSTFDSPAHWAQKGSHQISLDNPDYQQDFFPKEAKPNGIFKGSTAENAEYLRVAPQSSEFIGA

Chain of Epidermal growth factor receptor (Homo sapiens, UniProt P00533, L858R/T790M) (P00533 25-1210 T790M/L858R limits assumed): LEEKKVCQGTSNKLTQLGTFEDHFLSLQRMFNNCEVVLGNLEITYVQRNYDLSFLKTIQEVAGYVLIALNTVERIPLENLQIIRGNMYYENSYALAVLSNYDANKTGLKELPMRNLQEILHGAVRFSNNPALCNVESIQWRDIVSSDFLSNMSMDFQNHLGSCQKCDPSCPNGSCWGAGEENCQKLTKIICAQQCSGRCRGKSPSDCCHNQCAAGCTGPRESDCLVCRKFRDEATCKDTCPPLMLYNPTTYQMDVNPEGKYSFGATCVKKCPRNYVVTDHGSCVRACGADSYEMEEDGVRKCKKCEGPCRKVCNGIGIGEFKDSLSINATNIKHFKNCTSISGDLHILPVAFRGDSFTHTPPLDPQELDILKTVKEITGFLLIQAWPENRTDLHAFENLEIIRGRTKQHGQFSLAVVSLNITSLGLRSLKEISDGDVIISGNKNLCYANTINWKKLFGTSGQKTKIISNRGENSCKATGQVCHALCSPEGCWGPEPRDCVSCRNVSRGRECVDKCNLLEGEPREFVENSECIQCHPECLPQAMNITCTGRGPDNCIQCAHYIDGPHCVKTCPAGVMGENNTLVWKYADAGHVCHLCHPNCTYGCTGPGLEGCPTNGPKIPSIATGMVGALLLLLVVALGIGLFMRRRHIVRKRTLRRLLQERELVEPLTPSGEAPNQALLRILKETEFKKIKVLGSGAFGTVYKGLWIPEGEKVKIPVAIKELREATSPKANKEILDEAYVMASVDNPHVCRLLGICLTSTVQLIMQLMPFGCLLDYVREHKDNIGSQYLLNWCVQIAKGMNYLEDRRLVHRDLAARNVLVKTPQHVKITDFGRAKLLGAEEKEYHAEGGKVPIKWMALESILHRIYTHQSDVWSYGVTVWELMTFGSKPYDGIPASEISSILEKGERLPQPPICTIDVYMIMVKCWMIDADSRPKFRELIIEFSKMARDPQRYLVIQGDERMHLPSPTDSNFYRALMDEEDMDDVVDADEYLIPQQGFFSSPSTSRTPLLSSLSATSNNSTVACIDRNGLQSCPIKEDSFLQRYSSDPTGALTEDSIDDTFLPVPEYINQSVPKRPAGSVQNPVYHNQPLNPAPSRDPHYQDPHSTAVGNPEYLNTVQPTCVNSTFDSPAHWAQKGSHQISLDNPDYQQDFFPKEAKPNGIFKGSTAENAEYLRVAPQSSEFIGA

For the compound `C=CC(=O)Nc1ccc(OC)c(Nc2cc(-c3nc(SC)n(C)c3-c3ccc(F)cc3)ccn2)c1`, the values for the IC50 in assay [1] and in assay [2] were 1 nM and above 5000 nM, respectively.

Consider `C=CC(=O)Nc1ccc(OC)c(Nc2cc(-c3c(-c4ccc(F)cc4)nc(SC)n3C)ccn2)c1`, for which the results for the concentration for half-maximal inhibition (IC50) in assay [1] and in assay [2] were 111 nM and above 5000 nM, respectively.

One may read the IC50 as the point on the concentration scale where inhibition reaches its midpoint.
